The test system of series [1] is A549. Description: Antiproliferative activity against human A549 cells assessed as reduction in cell viability incubated for 72 hrs by CCK8 assay. Format: functional, cell-based.
The nature of series [2]: Cytotoxicity against mouse RAW264.7 cells assessed as reduction in cell viability incubated for 72 hrs by CCK8 assay. Format: toxicity, cell-based.
The subject of series [3] is K562. As to the kind of experiment: Antiproliferative activity against human K562 cells assessed as reduction in cell viability by CCK8 assay. The format is functional, cell-based.
The test system of series [4] is Colon 26. As to the kind of experiment: Antiproliferative activity against mouse Colon 26 cells assessed as reduction in cell viability incubated for 72 hrs by CCK8 assay. Format: functional, cell-based. The settings on record: Colon 26, 72 h.
In series [5] the test system is A549. As to the kind of experiment: Antiproliferative activity against human A549 cells assessed as reduction in cell viability by CCK8 assay. Format: functional, cell-based.
Series [6] deals with Huh-7. As to the kind of experiment: Antiproliferative activity against human Huh-7 cells assessed as reduction in cell viability by CCK8 assay. Format: functional, cell-based.

We go through one compound from ChEMBL document CHEMBL5634183, “Total Synthesis of Bipenicilisorin and Assignment of the Absolute Configuration” (J Nat Prod, 2024).

A value given as a limit tells only on which side of the number the result lay.

In the case of `COC(=O)c1cc2cc(OC)c(-c3c(OC)cc4cc(C(=O)OC)oc(=O)c4c3O)c(O)c2c(=O)o1`, the IC50 in series [1] (Homo sapiens, A549, 72 h) is 36.9 µM; in series [1] (a549), 60 µM; in series [3], 6.87 µM; in series [4], above 50 µM; in series [5], 6.94 µM; in series [6] it was 2.59 µM. For the same compound, the IC50 at 72 h in series [2] was above 50 µM.
